Data taken from patent US9161924B2, “Factor IXa inhibitors” (Merck Sharp & Dohme Corp., priority 2011, dated 2015).
Structures can show the parent of a compound that is named as a salt.

Biological target: human factor IXa (Homo sapiens (Human), UniProt P00740)
Assay: Factor IXa enzyme assay (inhibitory activity against factor IXa)
Format: biochemical
Conditions: substrate SPECTROFLUOR FIXa 100 μM, factor IXa 2.0 μg/ml, 60 minutes at room temperature, fluorescence
Method: Determination of Inhibitory Activity Against Factor IXa
Inhibitory activity against factor IXa was tested using the substrate SPECTROFLUOR FIXa (American Diagnostica Inc.; 500 West Avenue, Stamford, Conn. 06902 USA; Pr. No. 299F) and human factor IXa (American Diagnostica Inc.; Pr. No. 449b). Test substances dissolved in buffer A (50 mM α,α,α-tris (hydroxymethyl)methylamine (Tris), 100 mM NaCl, 5 mM CaCl2, 15% (v/v) ethylene glycol, pH 8.0) were mixed with factor IXa (2.0 μg/ml final concentration). The enzyme reaction was started by addition of SPECTROFLUOR FIXa (100 μM final concentration). After incubation for 60 minutes at room temperature, the reaction was stopped by the addition of 20% (v/v) acetic acid solution, and then fluorescence value measured (Excitation Wavelength:355 nm, Emission Wavelength; 460 nm) in a microtiter plate reader (ARVO 1420 Multilabel Counter; PerkinElmer).
IC50 was calculated from a dilution series of the test substance with the aid of the software, Symix Assay Explorer (Symyx Technologies, Inc.).

Chain of human factor IXa (P00740 227-461): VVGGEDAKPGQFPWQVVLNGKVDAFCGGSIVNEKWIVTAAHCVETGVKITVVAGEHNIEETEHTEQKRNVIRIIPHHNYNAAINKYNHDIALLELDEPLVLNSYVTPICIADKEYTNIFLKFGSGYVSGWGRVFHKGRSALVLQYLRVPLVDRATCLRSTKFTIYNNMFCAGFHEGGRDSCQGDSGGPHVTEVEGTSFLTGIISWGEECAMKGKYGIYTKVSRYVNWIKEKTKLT
Chain of human factor IXa (P00740 47-191 partner): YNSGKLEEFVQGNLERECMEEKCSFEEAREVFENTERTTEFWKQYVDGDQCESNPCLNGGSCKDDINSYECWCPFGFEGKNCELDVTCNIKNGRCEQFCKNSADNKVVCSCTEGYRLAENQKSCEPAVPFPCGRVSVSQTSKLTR

| SMILES | IC50 [nM] |
| --- | --- |
| Nc1nccc2cc(NC(=O)C(O)c3cccc(-c4ccc(OC(F)(F)F)cc4)c3)ccc12 (stereo not drawn) [Compound 22, N-(1-aminoisoquinolin-6-yl)-2-hydroxy-2-(4′-(trifluoromethoxy)biphenyl-3-yl)acetamide] | 760 |
| CC(C)(C)c1ccc(-c2cccc(C(O)C(=O)Nc3ccc4c(N)nccc4c3)c2)cc1 (stereo not drawn) [Compound 42, N-(1-aminoisoquinolin-6-yl)-2-(4′-tert-butylbiphenyl-3-yl)-2-hydroxyacetamide hydrochloride] | 695 |
| CC(C)(C)c1ccc(-c2cccc(C(O)C(=O)Nc3ccc(CN)cc3)c2)cc1 (stereo not drawn) [Compound 52, N-(4-(aminomethyl)phenyl)-2-(4′-tert-butylbiphenyl-3-yl)-2-hydroxyacetamide hydrochloride] | 1450 |

Now those with a lower IC50, led by results:

| IC50 [nM] | SMILES |
| --- | --- |
| 450 | N=C(N)c1ccc(NC(=O)C(O)c2cccc(-c3ccc(OC(F)(F)F)cc3)c2)cc1 (stereo not drawn) [Compound 13, N-(4-carbamimidoylphenyl)-2-hydroxy-2-(4′-(trifluoromethoxy)biphenyl-3-yl)acetamide] |
| 440 | N=C(N)c1ccc(NC(=O)C(O)c2cccc(-c3ccc(OC(F)(F)F)cc3)c2)cc1 (stereo not drawn) [Compound 9, N-(4-carbamimidoylphenyl)-2-hydroxy-2-(4′-(trifluoromethoxy)biphenyl-3-yl)acetamide] |
| 160 | CC(C)(C)c1ccc(-c2cccc(C(O)C(=O)Nc3ccc(C(=N)N)cc3)c2)cc1 (stereo not drawn) [Compound 37, 2-(4′-tert-butylbiphenyl-3-yl)-N-(4-carbamimidoylphenyl)-2-hydroxyacetamide hydrochloride] |
